Experiments:
Type in all cases: in vivo
[1] = tested on: ragweed (common ragweed, Ambrosia elatior); assay: Test A preemergence; settings: Ambrosia artemisiifolia, pre-emergence, 240 h; for pest or weed control at 500 g/ha: 500 g ai/ha, preemergence, visual injury rating about 10 d after treatment, 0 to 100 scale (0 no effect, 100 complete control), read-out: Ragweed plant response rating; for pest or weed control at 125 g/ha: 125 g ai/ha, Preemergence, visual injury rating after approximately 10 d, read-out: Ragweed plant response rating (0 to 100 scale, 0 is no effect, 100 is complete control)
Summary of the method: (§1)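 Preemergence soil spray on seeded pots or post-emergence spray on 1–2 leaf plants, in loam–sand blend. Greenhouse ~10 d. Visual rating 0–100 against untreated plants.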

[2] = tested on: barnyardgrass (Echinochloa crus-galli); assay: Test A preemergence; settings: Echinochloa crus-galli, pre-emergence, 240 h; for pest or weed control at 125 g/ha: 125 g ai/ha, Preemergence, visual injury rating after approximately 10 d, read-out: Barnyardgrass plant response rating (0 to 100 scale, 0 is no effect, 100 is complete control); for pest or weed control at 500 g/ha: 500 g ai/ha, preemergence, visual injury rating about 10 d after treatment, 0 to 100 scale (0 no effect, 100 complete control), read-out: Barnyardgrass plant response rating
Summary of the method: as §1

[3] = tested on: giant foxtail (Setaria faberii); assay: Test A preemergence; settings: Setaria faberi, pre-emergence, 240 h; for pest or weed control at 125 g/ha: 125 g ai/ha, Preemergence, visual injury rating after approximately 10 d, read-out: Foxtail, Giant plant response rating (0 to 100 scale, 0 is no effect, 100 is complete control); for pest or weed control at 500 g/ha: 500 g ai/ha, preemergence, visual injury rating about 10 d after treatment, 0 to 100 scale (0 no effect, 100 complete control), read-out: Foxtail, Giant plant response rating
Summary of the method: as §1

[4] = tested on: ryegrass, Italian (Italian ryegrass, Lolium multiflorum); assay: Test A preemergence; settings: Lolium multiflorum, pre-emergence, 240 h; for pest or weed control at 125 g/ha: 125 g ai/ha, Preemergence, visual injury rating after approximately 10 d, read-out: Ryegrass, Italian plant response rating (0 to 100 scale, 0 is no effect, 100 is complete control); for pest or weed control at 500 g/ha: 500 g ai/ha, preemergence, visual injury rating about 10 d after treatment, 0 to 100 scale (0 no effect, 100 complete control), read-out: Ryegrass, Italian plant response rating
Summary of the method: as §1

[5] = tested on: pigweed (Amaranthus retroflexus); assay: Test A preemergence; settings: Amaranthus retroflexus, pre-emergence, 240 h; for pest or weed control at 125 g/ha: 125 g ai/ha, Preemergence, visual injury rating after approximately 10 d, read-out: Pigweed plant response rating (0 to 100 scale, 0 is no effect, 100 is complete control); for pest or weed control at 500 g/ha: 500 g ai/ha, preemergence, visual injury rating about 10 d after treatment, 0 to 100 scale (0 no effect, 100 complete control), read-out: Pigweed plant response rating
[6] = tested on: Kochia (Kochia scoparia); assay: Test A preemergence; settings: Bassia scoparia, pre-emergence, 240 h; for pest or weed control at 125 g/ha: 125 g ai/ha, Preemergence, visual injury rating after approximately 10 d, read-out: Kochia plant response rating (0 to 100 scale, 0 is no effect, 100 is complete control); for pest or weed control at 500 g/ha: 500 g ai/ha, preemergence, visual injury rating about 10 d after treatment, 0 to 100 scale (0 no effect, 100 complete control), read-out: Kochia plant response rating
Summary of the method: as §1

[7] = tested on: sedge, umbrella (small-flower umbrella sedge, Cyperus difformis); assay: Test B flooded paddy test; settings: Cyperus difformis, Flood, 250 g ai/ha; scale of 0 to 100 where 0 is no effect and 100 is complete control; read-out: Sedge, Umbrella plant response rating
Summary of the method: (§2)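 Compound goes directly into floodwater once pots are flooded 3 cm above soil, targeting plants at two leaves; the water depth is then held for the test duration. Plants sit 13–15 d in a greenhouse and are rated visually, 100 denoting complete control.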

[8] = tested on: barnyardgrass (Echinochloa crus-galli); assay: Test B flooded paddy test; settings: Echinochloa crus-galli, Flood, 250 g ai/ha; scale of 0 to 100 where 0 is no effect and 100 is complete control; read-out: Barnyardgrass plant response rating
Summary of the method: as §2

[9] = tested on: rice (Oryra sativa); assay: Test B flooded paddy test; settings: Oryza sativa, Flood, 250 g ai/ha; scale of 0 to 100 where 0 is no effect and 100 is complete control; read-out: Rice plant response rating
Summary of the method: as §2

[10] = tested on: ducksalad (Heteranthera limosa); assay: Test B flooded paddy test; settings: Heteranthera limosa, Flood, 250 g ai/ha; scale of 0 to 100 where 0 is no effect and 100 is complete control; read-out: Ducksalad plant response rating
Summary of the method: as §2

[11] = tested on: ragweed (common ragweed, Ambrosia elatior); assay: Test A postemergence; settings: Ambrosia artemisiifolia, post-emergence, 240 h, 125 g ai/ha, Postemergence; visual injury after approximately 10 d; 0 to 100 scale where 0 is no effect and 100 is complete control; read-out: Plant response rating, Ragweed
Summary of the method: as §1

[12] = tested on: giant foxtail (Setaria faberii); assay: Test A postemergence; settings: Setaria faberi, post-emergence, 240 h, 125 g ai/ha, Postemergence; visual injury after approximately 10 d; 0 to 100 scale where 0 is no effect and 100 is complete control; read-out: Plant response rating, Foxtail, Giant
Summary of the method: as §1

[13] = tested on: ryegrass, Italian (Italian ryegrass, Lolium multiflorum); assay: Test A postemergence; settings: Lolium multiflorum, post-emergence, 240 h, 125 g ai/ha, Postemergence; visual injury after approximately 10 d; 0 to 100 scale where 0 is no effect and 100 is complete control; read-out: Plant response rating, Ryegrass, Italian
Summary of the method: as §1

[14] = tested on: Galium (catchweed bedstraw, Galium aparine); assay: Test A postemergence; settings: Galium, post-emergence, 240 h, 125 g ai/ha, Postemergence; visual injury after approximately 10 d; 0 to 100 scale where 0 is no effect and 100 is complete control; read-out: Plant response rating, Galium
Summary of the method: as §1

[15] = tested on: pigweed (Amaranthus retroflexus); assay: Test A postemergence; settings: Amaranthus retroflexus, post-emergence, 240 h, 125 g ai/ha, Postemergence; visual injury after approximately 10 d; 0 to 100 scale where 0 is no effect and 100 is complete control; read-out: Plant response rating, Pigweed
Summary of the method: as §1

[16] = tested on: corn (Zea mays); assay: Test A postemergence; settings: Zea mays, post-emergence, 240 h, 125 g ai/ha, Postemergence; visual injury after approximately 10 d; 0 to 100 scale where 0 is no effect and 100 is complete control
Summary of the method: as §1

[17] = tested on: Kochia (Kochia scoparia); assay: Test A postemergence; settings: Bassia scoparia, post-emergence, 240 h, 125 g ai/ha, Postemergence; visual injury after approximately 10 d; 0 to 100 scale where 0 is no effect and 100 is complete control; read-out: Plant response rating, Kochia
Summary of the method: as §1

[18] = tested on: blackgrass (Alopecurus myosuroides); assay: Test A postemergence; settings: Alopecurus myosuroides, post-emergence, 240 h, 125 g ai/ha, Postemergence; visual injury after approximately 10 d; 0 to 100 scale where 0 is no effect and 100 is complete control; read-out: Plant response rating, Blackgrass
Summary of the method: as §1

[19] = tested on: wheat (Triticum aestivum); assay: Test A postemergence; settings: Triticum aestivum, post-emergence, 240 h, 125 g ai/ha, Postemergence; visual injury after approximately 10 d; 0 to 100 scale where 0 is no effect and 100 is complete control; read-out: Plant response rating, Wheat
Summary of the method: as §1

Compound | pest or weed control at 500 g/ha [1] | pest or weed control at 125 g/ha [2] | pest or weed control at 500 g/ha [2] | pest or weed control at 125 g/ha [3] | pest or weed control at 500 g/ha [3] | pest or weed control at 125 g/ha [4] | pest or weed control at 500 g/ha [4] | pest or weed control at 125 g/ha [5] | pest or weed control at 500 g/ha [5] | pest or weed control at 125 g/ha [6] | pest or weed control at 500 g/ha [6] | pest or weed control at 250 g/ha [7] | pest or weed control at 250 g/ha [8] | pest or weed control at 250 g/ha [9] | pest or weed control at 250 g/ha [10] | pest or weed control at 125 g/ha [11] | pest or weed control at 125 g/ha [12] | pest or weed control at 125 g/ha [13] | pest or weed control at 125 g/ha [14] | pest or weed control at 125 g/ha [15] | also measured
CSc1ccccc1NC(=O)[C@H]1C(=O)N(C)C[C@@H]1c1cc(F)cc(Cl)c1 [Compound 975] | 90% | 90% | 100% | 90% | 90% | 30% | 40% | 20% | 90% | 50% | 90% | 0% | 40% | 0% | 90% | 0% | 90% | 20% | 50% | 30% | Corn plant response rating (crop injury, 0 = no effect, 100 = complete kill) at 125 g/ha [16]: 20%; pest or weed control at 125 g/ha [17]: 40%; pest or weed control at 125 g/ha [18]: 50%; plant injury at 125 g/ha [19]: 20%
Cc1c(F)cccc1NC(=O)[C@H]1C(=O)N(C)C[C@@H]1c1cc(F)cc(Cl)c1 [Compound 978] | 90% | 90% | 90% | 90% | 90% | 60% | 90% | 0% | 50% | 40% | 90% | 0% | 65% | 30% | 100% | 0% | 90% | 50% | 50% | 0% | pest or weed control at 125 g/ha [1]: 90%; Corn plant response rating (crop injury, 0 = no effect, 100 = complete kill) at 125 g/ha [16]: 60%; pest or weed control at 125 g/ha [17]: 0%; pest or weed control at 125 g/ha [18]: 60%; plant injury at 125 g/ha [19]: 70%
COc1cc(OC)cc([C@H]2CN(C)C(=O)[C@@H]2C(=O)Nc2ccccc2SC)c1 [Compound 981] | 50% | 90% | 100% | 90% | 100% | 0% | 60% | 0% | 0% | 0% | 90% | 0% | 0% | 0% | 0% | 0% | 70% | 0% | 0% | 0% | pest or weed control at 125 g/ha [1]: 0%; Corn plant response rating (crop injury, 0 = no effect, 100 = complete kill) at 125 g/ha [16]: 0%; pest or weed control at 125 g/ha [17]: 0%; pest or weed control at 125 g/ha [18]: 0%; plant injury at 125 g/ha [19]: 0%
